Results taken from patent US9023789B2, “Amylin analogs and pharmaceutical compositions thereof” (Novo Nordisk A/S, priority 2012, dated 2015).
Values after ≈ are worked out from the molar mass of the structure shown. Read-outs that look alike come from different tables or passages of the source. Numbered stars: 1 amine (or outer) side, 2 acyl side, 3 side chain; on linkers, the order of the positions; unused ones are H or OH. Bridge positions count the residues as written; N and C are the ends. Side chains are listed from the residue outwards. Peptide text beside a SMILES is read from it. * marks the point of attachment. C20 diacid = O=C(O)CCCCCCCCCCCCCCCCCCC(=O)*; γGlu = O=C(O)[C@H](CCC(=O)[*:2])N[*:1]

What was measured:
[1] = target: T1, rat amylin receptor (rat calcitonin receptor + rat RAMP 3) (Rattus norvegicus, UniProt P32214+Q9JJ73); assay: ASSAY (VI) binding to the rat amylin receptor; conditions: for IC50: binding to rat amylin receptor, read-out: rAmylin-R bind IC50
T1 construct: expressed in transfected cells; host or cells: BHK tk'ts 13 (transient, FuGENE 6), membranes
T1 sequence (P32214 25-479 isoform P32214-2 limits assumed): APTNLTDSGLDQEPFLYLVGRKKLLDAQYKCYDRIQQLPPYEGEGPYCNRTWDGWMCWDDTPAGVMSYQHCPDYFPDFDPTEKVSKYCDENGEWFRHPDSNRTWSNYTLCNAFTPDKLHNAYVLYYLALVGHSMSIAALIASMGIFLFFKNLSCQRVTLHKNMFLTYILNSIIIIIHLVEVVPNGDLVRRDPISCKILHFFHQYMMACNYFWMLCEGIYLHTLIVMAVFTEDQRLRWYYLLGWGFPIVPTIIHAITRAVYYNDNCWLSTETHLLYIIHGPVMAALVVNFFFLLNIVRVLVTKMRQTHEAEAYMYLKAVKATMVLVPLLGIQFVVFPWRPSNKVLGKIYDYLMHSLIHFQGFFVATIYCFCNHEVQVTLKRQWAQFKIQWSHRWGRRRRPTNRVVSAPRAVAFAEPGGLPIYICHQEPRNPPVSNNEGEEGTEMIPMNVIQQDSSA
T1 sequence (Q9JJ73 23-147 partner): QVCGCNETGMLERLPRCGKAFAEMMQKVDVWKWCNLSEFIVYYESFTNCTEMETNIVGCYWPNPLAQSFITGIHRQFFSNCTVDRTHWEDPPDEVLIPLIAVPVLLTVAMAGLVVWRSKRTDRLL
Method in brief: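 Membranes for this rat amylin receptor binding assay came from BHK tk′ts 13 cells. The cells were transiently transfected with rat calcitonin receptor using the FuGENE® 6 reagent from Roche, as the manufacturer recommends. The cells were collected approximately 48 hours after transfection, and membranes were then prepared.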

[2] = ASSAY (IV) determination of solubility; assay type: physicochemical
Method in brief: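 UPLC read-out of polypeptide concentration after centrifugation. Samples: aqueous polypeptide stock ([…]) + 100 mM buffer 1:1, glycylglycine pH 3.0–5.0 or bistrispropane pH 6.0–8.0; 18 h, RT.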

rat calcitonin receptor = target: T2, rat calcitonin receptor (Rattus norvegicus, UniProt P32214); assay: ASSAY (VIII) binding to the rat calcitonin receptor; conditions: Table 7, read-out: rCTR bind IC50
T2 construct: expressed in transfected cells; host or cells: BHK tk'ts 13 (transient, FuGENE 6), membranes
T2 sequence (P32214 25-479 isoform P32214-2 limits assumed): T1 sequence (P32214 25-479 isoform P32214-2 limits assumed)
Method in brief: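 Receptor source: membranes from transiently transfected BHK tk′ts 13 cells expressing rat calcitonin receptor, collected roughly 48 hours after transfection.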

[3] = target: T3, human calcitonin (a) receptor in BHK570 cells (Homo sapiens, UniProt P30988); assay: ASSAY (II)a functional assay, human calcitonin receptor (CRE luciferase); assay type: cell-based; conditions: read-out: hCTR funct. EC50
T3 construct: expressed in transfected cells
T3 sequence (P30988 25-474): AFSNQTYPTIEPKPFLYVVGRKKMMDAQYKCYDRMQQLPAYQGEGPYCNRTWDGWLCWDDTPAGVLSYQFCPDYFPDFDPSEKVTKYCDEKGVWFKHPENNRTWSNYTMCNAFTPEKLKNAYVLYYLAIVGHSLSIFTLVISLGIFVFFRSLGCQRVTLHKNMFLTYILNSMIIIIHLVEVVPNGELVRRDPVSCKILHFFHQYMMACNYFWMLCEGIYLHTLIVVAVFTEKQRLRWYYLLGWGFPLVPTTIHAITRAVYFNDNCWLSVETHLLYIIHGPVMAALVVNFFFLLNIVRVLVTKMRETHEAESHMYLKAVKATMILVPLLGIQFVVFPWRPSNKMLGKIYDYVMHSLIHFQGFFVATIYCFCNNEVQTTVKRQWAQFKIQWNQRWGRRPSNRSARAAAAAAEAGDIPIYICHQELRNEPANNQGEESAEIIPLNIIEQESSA
Method in brief: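 Receptor activation is measured as cAMP-driven CRE-luciferase expression in BHK cells expressing the calcitonin receptor, with RAMP-3 co-expressed to form the amylin 3(a) receptor. Cells are exposed to compound for 3 hours at 37° C, and luciferase is then quantified by luminescence.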

[4] = target: T4, human calcitonin receptor (Homo sapiens, UniProt P30988); assay: ASSAY (VII) binding to the human calcitonin receptor (SPA, 125I-Calcitonin); conditions: read-out: hCTR bind IC50;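 further: cell membranes (35 ng/µL) combined with SPA beads in 40 µL of pH 7.4 Hepes buffer, 384-well format, signal counted on a TopCounter instrument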
T4 construct: expressed in transfected cells
T4 sequence (P30988 25-474): T3 sequence (P30988 25-474)

[5] = Table 7, rat binding selectivity, rCTR IC50 / rAmylin-R IC50
[6] = Table 7a (preferred compounds), rat binding selectivity, rCTR IC50 / rAmylin-R IC50
[7] = ratio of rCTR bind IC50 to rAmylin-R bind IC50
[8] = bistrispropane buffer, pH 6.5, read-out: Solubility pH 6.5 Concentration
[9] = bistrispropane buffer, pH 7.5, read-out: Solubility pH 7.5 Concentration
[10] = bistrispropane buffer, pH 6.0, read-out: Solubility pH 6.0 Concentration
[11] = bistrispropane buffer, pH 7.0, read-out: Solubility pH 7.0 Concentration
[12] = bistrispropane buffer, pH 8.0, read-out: Solubility pH 8.0 Concentration
[13] = glycylglycine buffer, pH 3.0, read-out: Solubility pH 3.0 Concentration
[14] = glycylglycine buffer, pH 4.0, read-out: Solubility pH 4.0 Concentration
[15] = glycylglycine buffer, pH 5.0, read-out: Solubility pH 5.0 Concentration

Row | SMILES | IC50 ([1]; Table 7) | Ratio rCT/rAmylin binding [1, 5] | Ratio rCT/rAmylin binding [1, 6] | Ratio rCT/rAmylin binding [1, 7] | solubility at 18 h [2, 8] | solubility at 18 h [2, 9] | solubility at 18 h [2, 10] | solubility at 18 h [2, 11] | solubility at 18 h [2, 12] | solubility at 18 h [2, 13] | solubility at 18 h [2, 14] | solubility at 18 h [2, 15] | IC50 (rat calcitonin receptor) | EC50 [3] | IC50 [4]
1 | CC(C)C[C@H](NC(=O)[C@H](CCCNC(=N)N)NC(=O)[C@H](CCC(N)=O)NC(=O)[C@@H](NC(=O)[C@H](C)NC(=O)[C@@H]1CSSC[C@H](NC(=O)[C@@H](N)CCCCNC(=O)CC[C@H](NC(=O)CC[C@H](NC(=O)CCCCCCCCCCCCCCCCCCC(=O)O)C(=O)O)C(=O)O)C(=O)N[C@@H](CC(N)=O)C(=O)N[C@@H]([C@@H](C)O)C(=O)N[C@@H](C)C(=O)N[C@@H]([C@@H](C)O)C(=O)N1)[C@@H](C)O)C(=O)N[C@@H](C)C(=O)N[C@@H](CC(=O)O)C(=O)N[C@@H](Cc1ccccc1)C(=O)N[C@@H](CC(C)C)C(=O)N[C@@H](CCCNC(=N)N)C(=O)N[C@@H](Cc1c[nH]cn1)C(=O)N[C@@H](CO)C(=O)N[C@@H](CO)C(=O)N1CCC[C@H]1C(=O)N[C@@H](CC(N)=O)C(=O)N[C@@H](Cc1ccccc1)C(=O)NCC(=O)N[C@@H](C)C(=O)N1CCC[C@H]1C(=O)N[C@@H](CC(C)C)C(=O)N[C@@H](CO)C(=O)N[C@@H](CO)C(=O)N[C@H](C(=O)N[C@@H](CC(N)=O)C(=O)N[C@H](C(=O)NCC(=O)N[C@@H](CO)C(=O)N[C@@H](CC(=O)O)C(=O)N[C@H](C(=O)N[C@@H](Cc1ccc(O)cc1)C(N)=O)[C@@H](C)O)C(C)C)[C@@H](C)O [Example 1] (H-K([γGlu-γGlu-C20 diacid])CNTATCATQRLADFLRHSSPNFGAPLSSTNVGSDTY-NH2; disulfide 2-7) | 1.3 nM | 103.9 | 103.9 | 103.9 | ≥ 200 µM | ≥ 200 µM | ≥ 200 µM | ≥ 200 µM | ≥ 200 µM | ≥ 200 µM | ≥ 200 µM | 172 µM (≈ 776 µg/mL) | 135 nM | 2.7 nM | 32.5 nM
2 | CC[C@H](C)[C@H](NC(=O)[C@H](C)NC(=O)CNC(=O)[C@H](Cc1ccccc1)NC(=O)[C@H](CC(N)=O)NC(=O)[C@@H]1CCCN1C(=O)[C@H](CO)NC(=O)[C@H](CO)NC(=O)[C@H](Cc1c[nH]cn1)NC(=O)[C@H](CCCNC(=N)N)NC(=O)[C@H](CC(C)C)NC(=O)[C@H](Cc1ccccc1)NC(=O)[C@H](CC(N)=O)NC(=O)[C@H](C)NC(=O)[C@H](CC(C)C)NC(=O)[C@H](CCCNC(=N)N)NC(=O)[C@H](CCC(N)=O)NC(=O)[C@@H](NC(=O)[C@H](C)NC(=O)[C@@H]1CSSC[C@H](NC(=O)[C@@H](N)CCCCNC(=O)COCCOCCNC(=O)CC[C@H](NC(=O)CCCCCCCCCCCCCCCCCCC(=O)O)C(=O)O)C(=O)N[C@@H](CC(N)=O)C(=O)N[C@@H]([C@@H](C)O)C(=O)N[C@@H](C)C(=O)N[C@@H]([C@@H](C)O)C(=O)N1)[C@@H](C)O)C(=O)N1CCC[C@H]1C(=O)N[C@@H](CO)C(=O)N[C@@H](CO)C(=O)N[C@H](C(=O)N[C@@H](CC(N)=O)C(=O)N[C@H](C(=O)NCC(=O)N[C@@H](CO)C(=O)N[C@@H](CC(N)=O)C(=O)N[C@H](C(=O)N[C@@H](Cc1ccc(O)cc1)C(N)=O)[C@@H](C)O)C(C)C)[C@@H](C)O [Example 41] | 1.37 nM | 54.0 | 54.0 | 54.0 |  |  |  |  |  |  |  |  | 74.1 nM | 4.35 nM | 21.3 nM
3 | CC[C@H](C)[C@H](NC(=O)[C@H](C)NC(=O)CNC(=O)[C@H](Cc1ccccc1)NC(=O)[C@H](CC(N)=O)NC(=O)[C@@H]1CCCN1C(=O)[C@H](CO)NC(=O)[C@H](CO)NC(=O)[C@H](Cc1c[nH]cn1)NC(=O)[C@H](CCCNC(=N)N)NC(=O)[C@H](CC(C)C)NC(=O)[C@H](Cc1ccccc1)NC(=O)[C@H](CC(N)=O)NC(=O)[C@H](C)NC(=O)[C@H](CC(C)C)NC(=O)[C@H](CCCNC(=N)N)NC(=O)[C@H](CCC(N)=O)NC(=O)[C@@H](NC(=O)[C@H](C)NC(=O)[C@@H]1CSSC[C@H](NC(=O)[C@@H](N)CCCCNC(=O)COCCOCCNC(=O)CCCCCCCCCCCCCCCCCCC(=O)O)C(=O)N[C@@H](CC(N)=O)C(=O)N[C@@H]([C@@H](C)O)C(=O)N[C@@H](C)C(=O)N[C@@H]([C@@H](C)O)C(=O)N1)[C@@H](C)O)C(=O)N1CCC[C@H]1C(=O)N[C@@H](CO)C(=O)N[C@@H](CO)C(=O)N[C@H](C(=O)N[C@@H](CC(N)=O)C(=O)N[C@H](C(=O)NCC(=O)N[C@@H](CO)C(=O)N[C@@H](CC(N)=O)C(=O)N[C@H](C(=O)N[C@@H](Cc1ccc(O)cc1)C(N)=O)[C@@H](C)O)C(C)C)[C@@H](C)O [Example 43] | 0.11 nM | 69.1 | 69.1 | 69.1 | ≥ 200 µM | ≥ 200 µM | ≥ 200 µM | ≥ 200 µM | ≥ 200 µM | ≥ 200 µM | ≥ 200 µM | ≥ 200 µM | 7.6 nM | 0.92 nM | 2.64 nM
4 | CC[C@H](C)[C@H](NC(=O)[C@H](C)NC(=O)CNC(=O)[C@H](Cc1ccccc1)NC(=O)[C@H](CC(N)=O)NC(=O)[C@@H]1CCCN1C(=O)[C@H](CO)NC(=O)[C@H](CO)NC(=O)[C@H](Cc1c[nH]cn1)NC(=O)[C@H](CCCNC(=N)N)NC(=O)[C@H](CC(C)C)NC(=O)[C@H](Cc1ccccc1)NC(=O)[C@H](Cc1c[nH]cn1)NC(=O)[C@H](C)NC(=O)[C@H](CC(C)C)NC(=O)[C@H](CCCNC(=N)N)NC(=O)[C@H](CCC(N)=O)NC(=O)[C@@H](NC(=O)[C@H](C)NC(=O)[C@@H]1CSSC[C@H](NC(=O)[C@@H](N)CCCCNC(=O)COCCOCCNC(=O)CCCCCCCCCCCCCCCCCCC(=O)O)C(=O)N[C@@H](CC(N)=O)C(=O)N[C@@H]([C@@H](C)O)C(=O)N[C@@H](C)C(=O)N[C@@H]([C@@H](C)O)C(=O)N1)[C@@H](C)O)C(=O)N1CCC[C@H]1C(=O)N[C@@H](CO)C(=O)N[C@@H](CO)C(=O)N[C@H](C(=O)N[C@@H](CC(N)=O)C(=O)N[C@H](C(=O)NCC(=O)N[C@@H](CO)C(=O)N[C@@H](CC(N)=O)C(=O)N[C@H](C(=O)N[C@@H](Cc1ccc(O)cc1)C(N)=O)[C@@H](C)O)C(C)C)[C@@H](C)O [Example 90] | 0.246 nM | 74.1 | 74.1 | 74.1 | ≥ 200 µM | ≥ 200 µM | ≥ 200 µM | ≥ 200 µM | ≥ 200 µM | ≥ 200 µM | ≥ 200 µM | ≥ 200 µM | 18.2 nM | 0.236 nM | 
